Experimental data published in paper PMC3870587 (Biochemistry, 2013).
“And” between values parts separate entries of the source, which are not always exact repeats. Equal entries are not always repeated.

Experiments:
[1] = target: T1, human MTAP (apo) (Homo sapiens, UniProt Q13126); assay: Isothermal titration calorimetry of ligands binding to apo MTAP in Hepes buffer; conditions: for ΔΔG relative to MTA; contribution of the 9-deazaadenine (protonated N7): binding to apo MTAP, ΔG of MTA subtracted
T1 sequence (Q13126 1-283): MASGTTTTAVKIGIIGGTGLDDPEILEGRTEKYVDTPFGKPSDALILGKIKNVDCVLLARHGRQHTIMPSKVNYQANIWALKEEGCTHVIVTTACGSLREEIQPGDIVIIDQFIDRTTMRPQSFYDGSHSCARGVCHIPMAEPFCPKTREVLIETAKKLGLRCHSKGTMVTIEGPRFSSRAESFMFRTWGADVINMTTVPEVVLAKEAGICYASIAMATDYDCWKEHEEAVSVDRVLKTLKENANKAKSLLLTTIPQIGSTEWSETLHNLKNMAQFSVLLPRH

[2] = tested on: MTAP; conditions: steady-state kinetic analysis; ref [7],[12]; cited from earlier work
[3] = tested on: MTAP:phosphate complex; assay: Binding of TS analogues to the MTAP:phosphate complex; design: species or system human; conditions: from 40 nM to 90 pM
[4] = target: T1, human MTAP (apo); assay: Isothermal titration calorimetry of ligands binding to apo MTAP in Tris buffer; conditions: for ΔHTris [n] / −TΔSTris: apo MTAP; for ΔHTris [n]: Tris buffer pH 7.4; for −TΔSTris: Tris; for ΔHcorrection share of total binding free energy: binding to apo MTAP; for ΔHcorrection / −TΔScorrection: without protonation/deprotonation effects
[5] = tested on: human lung cancer; conditions: immunodeficient mice; ref [4],[5]; cited from earlier work
[6] = tested on: human head and neck cancer; conditions: immunodeficient mice; ref [4],[5]; cited from earlier work
[7] = target: MTAP:phosphate complex; conditions: read-out: dissociation constant (Kd); binding to MTAP:phosphate, ternary complex; ref [9],[10],[11]; cited from earlier work
[8] = apo MTAP, Hepes, all three sites or first-listed set of sites
[9] = apo MTAP, Hepes, second-listed set of sites
[10] = all three sites or first two sites
[11] = all three sites [3] or first two sites [2]

NumberProton (protons released from the binding of ligand to MTAP) [4, 10] | ΔHTris - ΔHHepes [4, 10] [kcal/mol] | ΔHTris [n] [4, 11] | −TΔSTris [4, 10] [kcal/mol] | ΔHcorrection [4, 10] | −TΔScorrection [4, 10] [kcal/mol] | Compound | ΔG [1, 8] | ΔHHepes [1, 8] [kcal/mol] | −TΔSHepes [1, 8] | ΔG [1, 9] [kcal/mol] | ΔHHepes [1, 9] [kcal/mol] | −TΔSHepes [1, 9] [kcal/mol] | ΔΔG relative to MTA; contribution of the 9-deazaadenine (protonated N7) [1] [kcal/mol] | ΔHcorrection share of total binding free energy [4] [%] | Kd [7] [nM] | also measured
– | – | – | – | – | – | 5'-methylthioadenosine [MTA, reference compound] | -11.1 kcal/mol and -11.1 ± 0.4 kcal/mol | -1.0 ± 0.3 | -10.1 kcal/mol and -10.1 ± 0.5 kcal/mol | -8.4 ± 0.1 | -6.1 ± 0.2 | -2.3 ± 0.2 | – | – | – | Km [2]: 1.7 µM
0.2 and 0.2 ± 0.1 | -1.2 ± 0.8 | -11.4 ± 0.2 kcal/mol | 1.3 ± 0.3 | -9.2 kcal/mol and -9.2 ± 0.9 kcal/mol | -0.9 ± 0.9 | CSC[C@H]1CN(Cc2c[nH]c3c(N)ncnc23)C[C@@H]1O [MT-DADMe-ImmA] | -10.1 kcal/mol and -10.1 ± 0.2 kcal/mol | -10.2 ± 0.8 | 0.1 ± 0.8 kcal/mol | -9.5 ± 0.1 | -3 ± 1 | -7 ± 1 | -1.7 | 91 | 0.09 | decrease of Kd, apo MTAP to ternary complex with phosphate [3]: 440 fold; ΔHTris [n] ([4]; third site [1]): -10.3 ± 0.4 kcal/mol; −TΔSTris ([4]; third site): 0.8 ± 0.4 kcal/mol; NumberProton (protons released from the binding of ligand to MTAP) ([4]; third site): 1.1 and 1.1 ± 0.2; ΔHTris - ΔHHepes ([4]; third site): -7 ± 1 kcal/mol; ΔHcorrection ([4]; third site): 2 ± 1 kcal/mol; −TΔScorrection ([4]; third site): -12 ± 1 kcal/mol; effect on human lung cancer [5]: suppresses the growth and metastases of human lung cancer; effect on human head and neck cancer [6]: causes remission of human head and neck cancer
– | – | – | – | – | – | Nc1ncnc2c(CN3CC(CSc4ccc(Cl)cc4)[C@H](O)C3)c[nH]c12 (stereo partly shown) [pClPhT-DADMe-ImmA] | – | – | – | – | – | – | – | – | 0.01 | –
−0.91 ± 0.05 | 5.9 ± 0.3 | −2.77 ± 0.04 [3] kcal/mol | -3.74 ± 0.07 | -13.1 kcal/mol and -13.1 ± 0.4 kcal/mol | 6.6 ± 0.4 | O=P(O)(O)O [phosphate, potassium phosphate] | -6.51 kcal/mol and -6.51 ± 0.06 kcal/mol | -8.7 ± 0.3 | 2.2 ± 0.3 kcal/mol | – | – | – | – | – | – | Kd ([1]; apo MTAP, Hepes, all three sites): 17000 nM; protons absorbed from the buffer on binding to apo MTAP ([4]; pH 7.4): 0.91 ± 0.05

Compound | NumberProton (protons released from the binding of ligand to MTAP) [4, 10] | ΔHTris - ΔHHepes [4, 10] [kcal/mol] | ΔHTris [n] [4, 11] | −TΔSTris [4, 10] [kcal/mol] | ΔHcorrection [4, 10] | −TΔScorrection [4, 10] [kcal/mol] | ΔG [1, 8] | ΔHHepes [1, 8] [kcal/mol] | −TΔSHepes [1, 8] | ΔG [1, 9] [kcal/mol] | ΔHHepes [1, 9] [kcal/mol] | −TΔSHepes [1, 9] [kcal/mol] | ΔΔG relative to MTA; contribution of the 9-deazaadenine (protonated N7) [1] [kcal/mol] | ΔHcorrection share of total binding free energy [4] [%] | Kd [7] [nM] | also measured
CSCC1NC(c2c[nH]c3c(N)ncnc23)[C@@H](O)[C@H]1O (stereo partly shown) [MT-ImmA] | 0.5 and 0.50 ± 0.01 | -3.23 ± 0.09 | −12.82 ± 0.05 [3] kcal/mol | 3.1 ± 0.1 | -7.15 kcal/mol and -7.15 ± 0.09 kcal/mol | -2.6 ± 0.1 | -9.7 ± 0.1 kcal/mol | -9.59 ± 0.08 | -0.1 ± 0.1 kcal/mol | – | – | – | -1.3 | 74 | 1 | –
